The text below walks through data of ChEMBL document CHEMBL1141236, “Surfing the piperazine core of tricyclic farnesyltransferase inhibitors” (Bioorg Med Chem Lett, 2005).

Structures are written as SMILES.

Experiment [1] concerns the target T1, Protein farnesyltransferase (Homo sapiens, UniProt P49354+P49356). In words: Inhibitory activity against human farnesyltransferase. The format is protein-complex assay.
Experiment [2] concerns the target T1, Protein farnesyltransferase. In words: Inhibitory activity in COS cell Ha-Ras processing assay. The experiment is classed as functional, cell-based, Chlorocebus aethiops.

Consider `O=C(CC1CN(C2c3ccc(Cl)cc3CCc3cc(Br)cnc32)CCN1C(=O)CCc1ccccc1)NCc1cccnc1` (stereo not drawn), for which the figures for the half-inhibitory concentration (IC50) in experiment [1] and in experiment [2] were 960 nM and 2000 nM, respectively.
`O=C(CC1CN(C2c3ccc(Cl)cc3CCc3cc(Br)cnc32)CCN1C(=O)Cc1ccncc1)NC1CC1` (stereo not drawn): inhibition in experiment [1] was half-maximal at 70 nM (IC50).
On to `O=C(NCc1cccnc1)C1CN(C2c3ccc(Cl)cc3CCc3cc(Br)cnc32)CCN1C(=O)CCc1ccccc1` (stereo not drawn), for which, in experiment [1], inhibition was half-maximal at 30 nM (IC50).
In turn, `O=C(NCC1CC1)C1CN(C2c3ccc(Cl)cc3CCc3cc(Br)cnc32)CCN1C(=O)Cc1ccncc1` (stereo not drawn) had a 50% inhibitory concentration (IC50) in experiment [1] of 50 nM.
On the same count and under the same terms, with `CNC(=O)C1CN(C2c3ccc(Cl)cc3CCc3cc(Br)cnc32)CCN1C(=O)Cc1ccc(Cl)cc1` (stereo not drawn) the figure was 100 nM.
As for `O=C(NCc1cccnc1)C1CCCN(C2c3ccc(Cl)cc3CCc3cc(Br)cnc32)C1` (stereo not drawn), the IC50 in experiment [1] worked out at 120 nM; in experiment [2], 2000 nM.

Broadly, the IC50 is the midpoint of a concentration-inhibition curve. The low end stands for inhibition by little substance, the high end for a need for much substance.
